The values below come from US20100160214A1 (SERENITY PHARMACEUTICALS CORPORATION, priority 2008, published 2010).

Like-named read-outs stand apart in the source and are kept apart here.

One data set is described as follows: clinical. The settings on record: human, in vivo; for CL/F / bioavailability / Tmax / half-life: both; for bioavailability: F % (fraction bioavailable). As for the experimental part: The open-label preliminary study of the effects and pharmacokinetics of the prototype composition was conducted with six male and six female healthy, water loaded, non-smoking volunteer subjects, following the protocol described generally below. In summary, each subject was dosed up to four times over a period of one week with dosing administered every other day. […] All subjects were screened prior to the first treatment, including evaluations of medical history, complete physical exam including nasopharyngeal exam, serum chemistry including serum osmolality, urinalysis including urine osmolality.
On day one all subjects were asked to have his/her morning void prior to breakfast, and thereafter subjects started the water loading process. […] To achieve a steady state diuresis, the subjects were directed to drink a volume of water corresponding to at least 1.5% and up to 3% of body weight. The water loading process started about two hours prior to the dosing of the first subject. Subjects were asked to void every 20 minutes. To ensure continuous water loaded state, the subjects replaced their urinary output loss with an equivalent amount of fluid. Insensible loss was not measured or replaced. When the urinary output rate exceeded 10 ml/min in two consecutive measurements (defined as water loaded state) in the subjects, dosing began. Subjects were maintained in the water loaded state with equivalent fluid intake versus fluid loss.
Blood sampling for pharmacokinetic determinations was performed at 1, 1.5, 2, 3, 4 and 6 hours post dose. Two seven ml blood samples were collected at each time point. […] 3.2 (Pharsight Corporation, USA). A plasma concentration value below the limit of quantitation (“LOQ”) followed by values above the limit was set at ‘LOQ/2’ for the analysis and for the descriptive statistics on concentrations. Values below LOQ not followed by values above the LOQ were excluded from the analysis, and set to zero in the descriptive statistics on concentrations.
(§1) Other than the dose level, all procedures were the same as those described for day one.
as §1
Other than the dosing paradigm, all procedures were the same as described on day one.
Assay values below the level of detection that occurred between two non-zero concentrations were considered to be “missing” for purposes of calculating the AUC. […] Accordingly, an average terminal half-life (Avg T1/2) was calculated for each subject that included a treatment with evaluable half-lives in that subject. […] The AUC could be calculated for each treatment and subject using the calculated average T1/2 value.
The AUCall is the AUC calculated using the trapezoidal rule that assumes that the concentration declines to 0.00 at the next sample collection time following the last quantifiable concentration. In the cases where concentrations had not declined to below the limit of detection by the time of the last scheduled sample, AUCall was the same as AUCtlqc.
The AUCtlqc is the AUC as calculated to the Time of the Last Quantifiable Concentration. This value is extrapolated using the ratio of the last quantifiable concentration and the terminal elimination rate to give the AUC∞. Therefore AUC∞ is always larger than the AUCtlqc. AUCall will also always be equal to or greater than AUCtlqc, but may be larger or smaller than AUC∞.

For data set [1] the following is noted: in vivo, cited from earlier work.

What is called CL/F is the apparent clearance, not corrected for the fraction that reaches the circulation. The bioavailability is dose-corrected exposure relative to a reference, in per cent. One may read the Tmax as the time from dosing to the highest level. By half-life is commonly meant the time needed for the level to fall by half in the phase considered. As for `NC(=O)CC[C@@H]1NC(=O)[C@H](Cc2ccccc2)NC(=O)[C@H](Cc2ccc(O)cc2)NC(=O)CCSSC[C@@H](C(=O)N2CCC[C@H]2C(=O)N[C@H](CCCN=C(N)N)C(=O)NCC(N)=O)NC(=O)[C@H](CC(N)=O)NC1=O` [desmopressin, 1-desamino-8-D-arginine vasopressin], the CL/F in “clinical” is 383 mL/min; in “clinical” (sc), 233 mL/min. Further, the bioavailability in the data set “clinical” is roughly 55%; in “clinical” (sc), 100%; in data set [1] (human, inhaled or intranasal) it was 3-5%; in data set [1] (po), “far less than one percent”. The values for the Tmax in “clinical” (sc) and in the data set “clinical” (topical or ocular) were 0.88 ± 0.349 h and 0.8 ± 0.406 h, respectively. Further, the half-life in the data set “clinical” (sc, Avg T1/2) is 1.68 ± 0.66 h; in “clinical” (sc, T1/2) it was 2.09 ± 0.32 h; in “clinical” (topical or ocular, Avg T1/2), 1.2 ± 0.42 h; in the data set “clinical” (topical or ocular, T1/2), 1.39 ± 0.61 h. In addition, the “AUC∞* (modified AUC∞ using average T1/2)” value stood at 0.00785 ± 0.00421 ng·h/mL in the data set “clinical” (sc) and 0.00446 ± 0.00309 ng·h/mL in the data set “clinical” (topical or ocular). The half life in data set [1] (human) is no less than 1.5 h. Also, the “range of Cmax” value in data set [1] (inhaled or intranasal, 20 ug) was 6-10 fold.
